{"source": "patent US20070098649A1", "about": "“Method and composition for controlling oral pathogens” (priority 2004, published 2007)", "key": {"S. mutans [1]": {"tested_on": "S. mutans", "assay": "Growth on agar with berberine and/or methylene blue (efflux screen)", "type": "cell-based"}, "S. gordonii [2]": {"tested_on": "S. gordonii", "assay": "Growth on agar with berberine and/or methylene blue (efflux screen)", "type": "cell-based"}, "S. mutans [3]": {"tested_on": "S. mutans", "assay": "Viability assessment (bactericidal activity)", "type": "cell-based", "protocol": "(§1) Two representative organisms, S. mutans and F. nucleatum, were used in this study. […] Aliquots of 4 ml of agent, prepared in sterile water, were placed into sterile test tubes and 1 ml of adjusted cells was added. The control consisted of 4 ml of PBS and 1 ml of cells. Samples were removed at 0, 15, 30, and 60 minutes, serial dilutions were performed, and the appropriate dilutions plated out. The plates were incubated at 37° C. under appropriate atmospheric conditions for up to 72 hours. Viable colony counts were determined and compared to nontreated control Percentage kill was calculated using the formula: ([…]×100. Log reduction was also calculated on Log10 transformed data. Effect of Berberine on Cell Surface Hydrophobicity"}, "F. nucleatum [4]": {"tested_on": "F. nucleatum", "assay": "Viability assessment (bactericidal activity)", "type": "cell-based", "protocol": "as §1"}, "A. actinomycetemcomitans [5]": {"tested_on": "A. actinomycetemcomitans", "assay": "Relative cell surface hydrophobicity (hexanes partition)", "type": "cell-based", "details": "berberine 500 μg ml^−1"}, "S. gordonii [6]": {"tested_on": "S. gordonii", "assay": "Relative cell surface hydrophobicity (hexanes partition)", "type": "cell-based", "details": "berberine 500 μg ml^−1"}, "S. mutans [7]": {"tested_on": "S. mutans", "assay": "Relative cell surface hydrophobicity (hexanes partition)", "type": "cell-based", "details": "berberine 500 μg ml^−1"}, "F. nucleatum [8]": {"tested_on": "F. nucleatum", "assay": "Relative cell surface hydrophobicity (hexanes partition)", "type": "cell-based", "details": "berberine 500 μg ml^−1"}, "P. gingivalis": {"tested_on": "P. gingivalis", "assay": "Relative cell surface hydrophobicity (hexanes partition)", "type": "cell-based", "details": "berberine 500 μg ml^−1"}, "A. actinomycetemcomitans [9]": {"tested_on": "A. actinomycetemcomitans", "assay": "Accumulation of berberine, fluorimetric assay", "type": "cell-based", "details": "CCCP 100 μM added five minutes after berberine; FIG. 1", "protocol": "Accumulation of berberine in A. actinomycetemcomitans was evaluated using a fluorimetric assay (based in Giraud et al., 2000). Overnight cells were harvested as previously described, washed twice with 50 mM sodium phosphate buffer (pH 7), resuspended in the same buffer at a concentration of 1×10^9 CFU ml^−1. The cells were equilibrated for 10 minutes at 37° C. Berberine was added at a final concentration of 500 μg ml^−1. After addition of berberine, 0.5 ml samples were removed at different time intervals. Five minutes after the addition of berberine, the efflux pump inhibitor carbonyl cyanide m-chlorophenylhydrazone (CCCP) was added to the reaction mixture (final concentration 100 μM). The samples were immediately diluted with 1 ml ice-cold sodium phosphate buffer and then were centrifuged for 5 minutes at 560.0×g. The pellet was washed once with 1 ml ice-cold buffer and resuspended in 1 ml of 0.1 M glycine hydrochloride (pH 3) for at least 15 hours at room temperature. The fluorescence of the supernatant was measured (excitation 355 nm and emission 517 nm) with a spectrofluorimeter (Model 810/814, Photon Technology International, Monmouth Junction, N.J.)."}, "[10]": {"details": "rats; oral; tritiated; cited from earlier work"}, "wild type S. aureus": {"tested_on": "wild type S. aureus", "details": "cited from earlier work"}, "[11]": {"details": "agar with 62.5, 125, 250 μg ml^−1, 48 hours at 37° C."}}, "data": [{"smiles": "COc1ccc2cc3[n+](cc2c1OC)CCc1cc2c(cc1-3)OCO2", "note": "[B-CG, berberine chloride]", "values": [{"measurement": "Concentration of B-CG in agar at which growth occurred", "setting": "S. mutans [1]; [11]", "value": 62.5, "unit": "µg/mL"}, {"measurement": "Concentration of B-CG in agar at which growth occurred", "setting": "S. gordonii [2]; [11]", "value": 62.5, "unit": "µg/mL"}, {"measurement": "Viability after 60 min exposure (mean Log10 reduction of CFU)", "setting": "S. mutans [3]; B-CG (500) μg ml^−1", "value": 0, "unit": "Log10"}, {"measurement": "Viability after 60 min exposure (mean Log10 reduction of CFU)", "setting": "S. mutans [3]; B-CG (1000) μg ml^−1", "value": 1, "unit": "Log10"}, {"measurement": "Viability after 60 min exposure (mean Log10 reduction of CFU)", "setting": "F. nucleatum [4]; B-CG (500) μg ml^−1", "value": 2.77, "unit": "Log10"}, {"measurement": "Viability after 60 min exposure (mean Log10 reduction of CFU)", "setting": "F. nucleatum [4]; B-CG (1000) μg ml^−1", "value": 3.22, "unit": "Log10"}, {"measurement": "Typical reduction scores on relative cell surface hydrophobicity", "setting": "A. actinomycetemcomitans [5]", "value": "−31.6", "unit": "%"}, {"measurement": "Typical reduction scores on relative cell surface hydrophobicity", "setting": "S. gordonii [6]", "value": 26.1, "unit": "%"}, {"measurement": "Typical reduction scores on relative cell surface hydrophobicity", "setting": "S. mutans [7]", "value": 14.8, "unit": "%"}, {"measurement": "Typical reduction scores on relative cell surface hydrophobicity", "setting": "F. nucleatum [8]", "value": 29.9, "unit": "%"}, {"measurement": "Typical reduction scores on relative cell surface hydrophobicity", "setting": "P. gingivalis", "value": 26.7, "unit": "%"}]}, {"smiles": "N#CC(C#N)=NNc1cccc(Cl)c1", "note": "[CCCP, carbonyl cyanide m-chlorophenylhydrazone]", "values": [{"measurement": "Effect on berberine accumulation", "setting": "A. actinomycetemcomitans [9]", "value": "very rapid and marked increase in berberine accumulation"}]}, {"smiles": "COc1ccc2cc3[n+](cc2c1OC)CCc1cc2c(cc1-3)OCO2", "note": "[berberine chloride]", "values": [{"measurement": "Excretion after 48 hours", "setting": "[10]", "value": "majority of the administered dose had been excreted in feces"}, {"measurement": "Time of peak levels in liver and muscles", "setting": "[10]", "value": 12, "unit": "h"}]}, {"smiles": "CN(C)c1ccc2nc3ccc(=[N+](C)C)cc-3sc2c1", "note": "[methylene blue (MB), methylene blue]", "values": [{"measurement": "Growth on agar in the presence of methylene blue", "setting": "S. mutans [1]; 50 μg/ml", "value": "did not grow"}, {"measurement": "Growth on agar in the presence of methylene blue", "setting": "S. gordonii [2]; 50 μg/ml", "value": "did not grow"}]}, {"smiles": "COC(=O)[C@H]1[C@H]2C[C@@H]3c4[nH]c5cc(OC)ccc5c4CCN3C[C@H]2C[C@@H](OC(=O)c2cc(OC)c(OC)c(OC)c2)[C@@H]1OC", "note": "[reserpine]", "values": [{"measurement": "Inhibition of the efflux of norfloxacin", "setting": "wild type S. aureus", "value": "at least four"}]}]}
